These are literature values, as cited in EP0529484A1, “Antitussive and expectorant composition” (ND NEW DRUG DEVELOPMENT INSTITUTE INC., priority 1991, dated 1993).

Regarding `C[N+]1(CCF)[C@@H]2CC[C@H]1C[C@@H](OC(=O)C(O)(c1ccccc1)c1ccccc1)C2` (stereo partly drawn) [flutropium bromide, 8(r)-8-(2-fluoroethyl)-3α-hydroxy-1αH,5αH-tropanium bromide, benzilate hydrate], the entries for the “LD₅₀ through oral administration” value with mouse and with rat were 930 mg/kg and 2,900 mg/kg, respectively.
